Experimental data published in US9422286B2, “Metal-binding bifunctional compounds as diagnostic agents for Alzheimer's disease” (Washington University, priority 2014, dated 2016).

Tests used:
[1] = Biodistribution and brain uptake of ^64Cu-radiolabeled compounds; type: in vivo, wild type CD-1 female mice; conditions: ^64Cu complexes, tail vein injection, 2, 60 and 240 min
Protocol: Biodistribution studies were conducted in wild type CD-1 female mice (Charles River Laboratories) of age 5-7 weeks weighing 25.4±1.4 g. The injection dose was prepared by diluting to a 90% saline solution. The uptake of compounds was evaluated in mice (L3 and L6, n=7; L4, L5, and L7, n=3) that were injected via the tail vein with 0.22-0.37 MBq (6-10 μCi) of each compound per animal in 100 μL saline. After each time points (2, 60, and 240 min), mice were anesthetized with 1-2% isoflurane and sacrificed by cervical dislocation. Brain, blood, kidney, liver and other organs of interest were harvested and amount of radioactivity in each organ was counted on a gamma counter containing a NaI crystal. The data was corrected for radioactive decay and percent injected dose per gram (% ID/g) of tissue was calculated. All samples were calibrated against a known standard. Quantitative data were processed by Prism 6 (GraphPad Software, v 6.03, La Jolla, Calif.) and expressed as Mean±SEM. Statistical analysis performed using one-way analysis of variance and Student's t test. Differences at the 95% confidence level (p<0.05) were considered statistically significant.

[2] = UV-vis pH titration, acidity constant determination; type: physicochemical; conditions: 50 μM, 0.1 M NaCl, room temperature, methanol-water (methanol ≤20% v:v); for [HL1]/[L1]^− (pKa4): assigned to the phenol group
Protocol: UV-vis pH titrations were employed to determine the acidity constants of compounds L3-L7 and the stability constants of their Cu^2+ complexes. For acidity constants, solutions of the bifunctional compound (50 μM, 0.1 M NaCl, pH 3) were titrated with small aliquots of 0.1 M NaOH at room temperature. At least 30 UV-vis spectra were collected in the pH 3-11 range (FIG. 1).

[3] = pH-spectrophotometric titration, stability constants of Cu^2+ complexes; type: physicochemical; conditions: for Calculated pCu (−log[Cu]free): [Cu^2+]tot = [chelator]tot = 50 μM
Protocol: Similar spectrophotometric titrations were performed to determine the stability constants and solution speciation of Cu^2+ with L3-L6. Stability constants were determined by titrating solutions of the compounds and equimolar amounts of Cu(ClO4)2.6H2O (50 μM or 0.5 mM) with small aliquots of 0.1 M NaOH at room temperature. At least 30 UV-vis spectra were collected in the pH 3-11 range (FIG. 2). The acidity and stability constants were calculated using the HypSpec computer program (Protonic Software, UK, Gans, P.; Sabatini, A.; Vacca, A. Ann. Chim. 1999, 45). Speciation plots of the compounds and their metal complexes were calculated using the program HySS2009 (Protonic Software, UK) (Alderighi, L. Coord. Chem. Rev. 1999, 184, 311). […] The data obtained for the Cu complex of compound L7 could not be fit satisfactorily using a reasonable model, most likely due to a multinuclear complex formation, as observed by X-ray crystallography.

[4] = test system: Aβ deposits; conditions: cited from earlier work
[5] = target: T1, Aβ40 fibrils (Homo sapiens, UniProt P05067); assay: Direct fluorescence assay with Aβ fibrils; type: binding; conditions: [Aβ]=5 μM, λex/λem=350/450 nm; read-out: Kd, Aβ fibrils, compound fluorescence
T1 construct: purchased Keck Biotechnology Resource Laboratory, Yale University
Protocol: (§1) Aβ monomeric films were prepared by dissolving commercial Aβ42 (or Aβ40 for Aβ fibril binding studies) peptide (Keck Biotechnology Resource Laboratory, Yale University) in hexafluoroisopropanol (HFIP) (1 mM) and incubating for 1 hour at room temperature (Klein, W. L. Neurochemistry International 2002, 41, 345). The solution was then aliquoted out and evaporated overnight. The aliquots were vacuum centrifuged and the resulting monomeric films stored at −80° C. Aβ fibrils were generated by dissolving monomeric Aβ films in dimethyl sulfoxide (DMSO), diluting into the appropriate buffer, and incubating for 24 hours at 37° C. with continuous agitation (final DMSO concentration was <2%). […]
(§2) All fluorescence measurements were performed using a SpectraMax M2e plate reader (Molecular Devices). For ThT fluorescence studies, samples were diluted to a final concentration of 2.5 μM Aβ in phosphate buffered saline (PBS) solution containing 10 μM ThT and the fluorescence measured at 485 nm (λex=435 nm). For Aβ fibril binding studies, a 5 μM Aβ fibril solution was titrated with small amounts of compound and their fluorescence intensity measured (λex/λem=350/450 nm). For ThT competition assays, a 2 μM Aβ fibril solution with 1 μM ThT was titrated with small amounts of compound and the ThT fluorescence measured (λex/λem=435/485 nm). […]

[6] = target: T2, ThT-bound Aβ40 fibrils (Homo sapiens, UniProt P05067); assay: ThT fluorescence competition assay; type: binding; conditions: [Aβ]=2 μM, [ThT]=1 μM
T2 construct: purchased Keck Biotechnology Resource Laboratory, Yale University
Protocol: as §1, §2

[7] = test system: Aβ fibrils; conditions: non-Cu binding blocking agent; cited from earlier work
[8] = Cu^2+ complex, equimolar Cu(ClO4)2, room temperature

T2 sequence (P05067 672-711 limits assumed): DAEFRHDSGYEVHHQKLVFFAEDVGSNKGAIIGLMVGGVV
T1 sequence (P05067 672-711 limits assumed): as above

Row | Compound | [H2L1]^+/[HL1] (pKa3) [2] | [H3L1]^+2/[H2L1]^+ (pKa2) [2] | [H4L1]^3+/[H3L1]^2+ (pKa1) [2] | [HL1]/[L1]^− (pKa4) [2] | Stability constant, M^2+ + HL = [MHL]^+2 [3, 8] | Stability constant, M^2+ + L^− = [ML]^+ [3, 8] | Brain uptake and wash out [1] | other results
1 | [11CH3]Nc1ccc(-c2nc3ccc(O)cc3s2)cc1 [^11C-PiB] | – | – | – | – | – | – | – | Binding to soluble amyloid, NFTs, Lewy bodies ([4]; at nanomolar concentrations): does not bind; Binding to Aβ deposits ([4]; in vitro autoradiography): binds to aggregated, fibrillar Aβ deposits
2 | COc1cc(-c2nc3ccccc3s2)cc(CN2CCN(C)CCN(C)CC2)c1O [L3] | 8.27 | 6.35 | 3.78 | 9.34 | – | 31.96(60) | – | Kd [5]: ~0.575 µM; Stability constant, [ML(H2O)]^+1 = [ML(OH)] + H^+ [3, 8]: 10.14(60)
3 | O=C(O)CN(CCN(CC(=O)O)CC(=O)O)CCN(CC(=O)O)CC(=O)O [DTPA, diethylene triamine pentaacetic acid, reference compound] | – | – | – | – | – | – | – | Calculated pCu (−log[Cu]free) ([3]; pH 6.6): 9.3; Calculated pCu (−log[Cu]free) ([3]; pH 7.4): 10.1
4 | COc1cc(-c2nc3ccccc3s2)cc(CN2Cc3cccc(n3)CNCc3cccc(n3)C2)c1O [L4] | 9.34 | 7.84 | 5.14 | 10.14 | 2.881 | 27.093 | higher initial brain uptake at 2 min, followed by rapid wash out | –
5 | COc1ccc(/C=C/c2ccc(O)cc2)cc1OC [L8] | – | – | – | – | – | – | – | Ki [6]: 0.066 ± 0.02 µM
6 | Oc1cccc2scnc12 [BTZ, 4-hydroxybenzothiazole] | – | – | – | – | – | – | – | Affinity for Aβ fibrils [7]: nanomolar affinity

The next lines start with results.

Row | [H2L1]^+/[HL1] (pKa3) [2] | [H3L1]^+2/[H2L1]^+ (pKa2) [2] | [H4L1]^3+/[H3L1]^2+ (pKa1) [2] | [HL1]/[L1]^− (pKa4) [2] | Stability constant, M^2+ + HL = [MHL]^+2 [3, 8] | Stability constant, M^2+ + L^− = [ML]^+ [3, 8] | Compound | Brain uptake and wash out [1] | other results
7 | 8.02 | 5.61 | 4.80 | 9.60 | 4.008 | 27.224 | COc1cc(-c2nc3ccccc3s2)cc(CN2Cc3cccc(n3)CN(C)Cc3cccc(n3)C2)c1O [L5] | higher initial brain uptake at 2 min, followed by rapid wash out | –
8 | 8.22 | 7.39 | 4.35 | 10.65 | – | – | COc1cc(-c2nc3ccccc3s2)cc(CN2Cc3cccc(n3)CN(Cc3cc(-c4nc5ccccc5s4)cc(OC)c3O)Cc3cccc(n3)C2)c1O [L7] | higher initial brain uptake at 2 min, followed by rapid wash out | –
9 | 8.71 | 6.93 | 4.57 | 9.98 | 3.012 | 30.098 | COc1cc(-c2nc3ccccc3s2)cc(CN2Cc3cccc(n3)CN(CC(=O)O)Cc3cccc(n3)C2)c1O [L6] | higher initial brain uptake at 2 min, followed by rapid wash out | Ki [6]: 0.325 ± 0.04 µM
